{"source": "patent US20260216147A1", "about": "“USE OF A THIENOPYRIDONE DERIVATIVE IN THE TREATMENT OF DIABETIC NEPHROPATHY” (POXEL, priority 2020, published 2026)", "key": {"[1]": {"conditions": "background statement; cited from earlier work"}, "[2]": {"test_system": "preclinical model of diabetic nephropathy", "conditions": "K. O. Cameron et al., J. Med. Chem. 2016; cited from earlier work"}, "obese ZSF1 rats [3]": {"test_system": "obese ZSF1 rats", "test": "Glomerular filtration rate (FITC-sinistrin, transcutaneous) in obese ZSF1 rats", "format": "in vivo, rat", "conditions": "150 mg/kg oral gavage twice a day, 90 days (24 weeks of age), vs untreated ZSF1 rats", "source_text": "(§1) ZSF1 rat is a Leptin-resistant, obese, hypertensive Zucker diabetic fatty/Spontaneously hypertensive heart failure F1 hybrid (ZSF1) rat. The obese ZSF1 rat is described as a relevant pre-clinical model for the study of renal function decline to end stage renal disease in the setting of type 2 diabetes (Dower K et al., PLOS ONE 2017; 12 (7): e0181861).\n(§2) Obese ZSF1 rats and lean ZSF1 (Lean) were 12-week-old at the time of treatment initiation.\n(§3) The following groups were constituted: • Lean rats (untreated; n=5-8) • ZSF1 rats (untreated; n=9-12) • ZSF1 treated with PXL770 (n=8-12).\n(§4) The compound of Example 2, also known as PXL770 was administered by oral gavage at the dose of 150 mg/kg twice a day for 8 days (13 weeks of age) or 90 days (24-week old of age).\n(§5) The PXL770 suspension was prepared at the concentrations used in the study (150 mg/kg) in the vehicle, i.e. carboxymethylcellulose 0.5%/Tween 80 (98/2).\nAt D8 and D90, glomerular filtration rate was determined with the fluorescent glomerular filtration rate tracer fluorescein isothiocyanate (FITC)-sinistrin using the transcutaneous glomerular filtration rate system (NIC-Kidney; Mannheim Pharma and Diagnostics GmbH, Mannheim, Germany) (Schock-Kusch D. et al., PLOS One 2013; 8, e71519). […]"}, "obese ZSF1 rats [4]": {"test_system": "obese ZSF1 rats", "test": "Albuminuria in 15 h overnight urine of obese ZSF1 rats", "format": "in vivo, rat", "conditions": "150 mg/kg oral gavage twice a day", "source_text": "as §1, §2, §3, §4, §5\n(§6) Randomly selected animals of each group (n=8-12) were placed in separate metabolic cages in order to collect 15 h over-night urine samples at D8 and D90. Albuminuria was determined as indicator of renal dysfunction using IDEXX Vetlab analyzer. Glycosuria was determined using IDEXX Vetlab analyzer. […]"}, "obese ZSF1 rats [5]": {"test_system": "obese ZSF1 rats", "test": "Glycosuria in 15 h overnight urine of obese ZSF1 rats", "format": "in vivo, rat", "conditions": "150 mg/kg oral gavage twice a day", "source_text": "as §1, §2, §3, §4, §5, §6"}, "obese ZSF1 rats [6]": {"test_system": "obese ZSF1 rats", "test": "Urine volume (15 h overnight, metabolic cages) of obese ZSF1 rats", "format": "in vivo, rat", "conditions": "150 mg/kg oral gavage twice a day, 90 days, vs untreated ZSF1 rats", "source_text": "as §1, §2, §3, §4, §5, §6"}, "[7]": {"conditions": "background statement; cited from earlier work", "remark": "listed apart in the source"}}, "data": [{"molecule": "N#Cc1c(O)c2c(-c3ccc(-c4ccccc4O)cc3)csc2[nH]c1=O", "note": "[Compound A-799662]", "values": [{"measurement": "Oral bioavailability", "setting": "[1]", "result": "poor oral bioavailability"}]}, {"molecule": "O=C(O)c1c[nH]c2cc(Cl)c(-c3ccc(C4(O)CCC4)cc3)cc12", "note": "[PF-06409577]", "values": [{"measurement": "Efficacy in a preclinical model of diabetic nephropathy", "setting": "[2]", "result": "showed efficacy"}]}, {"molecule": "O=c1[nH]c2sc(Cl)c(-c3ccc4c(c3O)CCCC4)c2c([O-])c1-c1ccccc1.[K+]", "note": "[PXL770, monohydrate potassium salt of 2-chloro-4-hydroxy-3-(5-hydroxytetralin-6-yl)-5-phenyl-7H-thieno[2,3-b]pyridin-6-one]", "values": [{"measurement": "Glomerular filtration rate (GFR)", "setting": "obese ZSF1 rats [3]", "result": "significantly prevented the decrease in GFR"}, {"measurement": "Albuminuria (urine albumin level)", "setting": "obese ZSF1 rats [4]; 8 days (13 weeks of age), vs age-matched untreated ZSF1 rats", "result": "a decrease in albuminuria was observed"}, {"measurement": "Albuminuria (urine albumin level)", "setting": "obese ZSF1 rats [4]; 90 days (24 weeks of age), vs untreated ZSF1 rats", "result": "significantly reduced"}, {"measurement": "Glycosuria (urine glucose level)", "setting": "obese ZSF1 rats [5]; 8 days", "result": "reduced glycosuria"}, {"measurement": "Glycosuria (urine glucose level)", "setting": "obese ZSF1 rats [5]; 90 days", "result": "reduced glycosuria"}, {"measurement": "Urine volume", "setting": "obese ZSF1 rats [6]", "result": "decreased significantly urine volume"}]}, {"molecule": "MK-8722", "values": [{"measurement": "Cardiac side effects", "setting": "[7]", "result": "known to trigger cardiac side effects"}]}]}
